Assay results from ChEMBL document CHEMBL2401697, “Indazoles as potential c-Met inhibitors: design, synthesis and molecular docking studies” (Eur J Med Chem, 2013).

What follows are compounds tested on MKN-45 (assay: Cytotoxicity against human MKN45 cells after 1 hr by Western blotting analysis). Conditions: MKN-45, 1 h.
Compound `c1cnc2ccc(Cn3cc4ccc(-c5cnn(CCOC6CCCCO6)c5)cc4n3)cc2c1` (stereo not given) has an IC50 of 12 µM. Work on `OCCn1cc(-c2ccc3cn(Cc4ccc5ncccc5c4)nc3c2)cn1` yielded an IC50 of 110 µM. `CC(C)(C)[Si](C)(C)O[C@H]1CC[C@H](n2cc(-c3ccc4cnn(Cc5ccc6ncccc6c5)c4c3)cn2)CC1` gave an IC50 of 11 µM. `c1cnc2ccc(Cn3ncc4ccc(-c5cnn(CCOC6CCCCO6)c5)cc43)cc2c1` (stereo not given) gave an IC50 of 14 µM. `Cn1cc(-c2ccc3cnn(Cc4ccc5ncccc5c4)c3c2)cn1` showed an IC50 of 12.9 µM. In the case of `O[C@H]1CC[C@H](n2cc(-c3ccc4cnn(Cc5ccc6ncccc6c5)c4c3)cn2)CC1`, the IC50 is reported as 5.45 µM. `O[C@H]1CC[C@H](n2cc(-c3ccc4cn(Cc5ccc6ncccc6c5)nc4c3)cn2)CC1` gave an IC50 of 13.4 µM. Compound `OCCn1cc(-c2ccc3cnn(Cc4ccc5ncccc5c4)c3c2)cn1` has an IC50 of 6.72 µM. `Cn1cc(-c2ccc3cn(Cc4ccc5ncccc5c4)nc3c2)cn1` was tested, and the IC50 was 106 µM. Work on `CC(C)(C)[Si](C)(C)O[C@H]1CC[C@H](n2cc(-c3ccc4cn(Cc5ccc6ncccc6c5)nc4c3)cn2)CC1` yielded an IC50 of 1300 µM.
